The values that follow come from article PMC3371641 (SAR and QSAR in Environmental Research, 2011).

The target in one data set is T1, cytochrome P450 enzyme 1A2 (CYP1A2) (Homo sapiens, UniProt P05177).
T1 sequence (P05177 2-516): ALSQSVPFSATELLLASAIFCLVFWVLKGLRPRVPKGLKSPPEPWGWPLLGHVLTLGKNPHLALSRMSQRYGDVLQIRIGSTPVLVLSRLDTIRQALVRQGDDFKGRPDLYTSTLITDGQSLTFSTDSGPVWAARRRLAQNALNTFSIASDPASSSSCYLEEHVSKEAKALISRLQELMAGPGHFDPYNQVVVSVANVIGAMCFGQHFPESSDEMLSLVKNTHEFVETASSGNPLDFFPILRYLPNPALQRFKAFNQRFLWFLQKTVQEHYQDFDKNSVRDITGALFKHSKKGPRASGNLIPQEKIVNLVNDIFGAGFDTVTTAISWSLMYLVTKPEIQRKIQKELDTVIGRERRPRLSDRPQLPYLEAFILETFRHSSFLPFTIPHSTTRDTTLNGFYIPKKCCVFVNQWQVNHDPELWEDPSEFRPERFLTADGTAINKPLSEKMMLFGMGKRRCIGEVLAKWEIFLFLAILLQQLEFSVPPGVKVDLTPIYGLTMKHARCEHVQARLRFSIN
Kind of data set: enzyme inhibition assay, method reported earlier. It counts as biochemical.
Details: not given
For `CCC#Cc1ccc2ccc3cccc4ccc1c2c34` [1EEP, 1-butynylpyrene], the IC50 was found to be 430 nM.

The compound `CC#Cc1ccc2c(ccc3ccccc32)c1` [2MEPHEN, 2-(1-propynyl)phenanthrene] returned an IC50 of 600 nM.

Take `C#CCOc1ccc(-c2ccccc2)cc1` [4BIPHPE, 4-biphenylpropargyl ether]: the IC50 amounted to 1550 nM.

Compound `C#CCOc1ccc2c(C)cc(=O)oc2c1` [4M7CPE, 4-methyl-7-coumarinpropargyl ether] came in with an IC50 of 2010 nM.

Compound `C#CCOc1ccc2c(C(F)(F)F)cc(=O)oc2c1` [4TFM7CPE, 4-(trifluoromethyl)-7-coumarinpropargyl ether] registered an IC50 of 700 nM.

As for `C#CCOc1ccc(-c2cc(=O)c3ccccc3o2)cc1` [4′FPE, 4′-flavonepropargyl ether], the IC50 was 1270 nM.

Compound `C#CCOc1ccc(-c2cc(=O)c3ccc4ccccc4c3o2)cc1` [4′αNFPE, α-naphthoflavone-4′-propargyl ether] returned an IC50 of 260 nM.

The compound `C#CCOc1cccc2oc(-c3ccccc3)cc(=O)c12` [5FPE, 5-flavonepropargyl ether] returned an IC50 of 380 nM.

`C#CCOc1ccc2oc(-c3ccccc3)cc(=O)c2c1` [6FPE, 6-flavonepropargyl ether] displayed an IC50 of 940 nM.

`C#CCOc1ccc2c(c1)OC(c1ccccc1)CC2=O` (stereo not drawn) [7FLAVANONEPE, 7FlavanonePE] registered an IC50 of 970 nM.

Compound `C#CCOc1ccc2c(=O)cc(-c3ccccc3)oc2c1` [7FPE, 7-flavonepropargyl ether] showed an IC50 of 390 nM.

Still in this data set, the particulars now being: read-out: EI.
For the compound `C#CCOCc1ccc(-c2ccccc2)cc1` [4BIPHMPE, 4-biphenyl methyl propargyl ether], the IC50 was 1840 nM.
